Data set [1] in a line: Pharmacokinetic parameters after intravenous administration to rats. To be noted: male, Han/Wistar, rat, in vivo, 20 nmol/kg. The procedure: Pharmacokinetic parameters of the test compounds were determined after intravenous administration to Han/Wistar rats. The acylated GLP-1 analogue semaglutide was also tested for comparison purposes. Male Wistar rats were obtained from Charles River (Germany) weighing approximately 180 to 210 g at time of arrival at the test facility. Rats were caged in European standard rat cages type IV with light cycle of 12-hour dark and 12-hour light. During the study rats were housed in standard rat cages type III. Both diet Altromin 1324 (Altromin, Germany) and water was administered ad libitum during the whole experimental period. The animals were housed in the test facility for at least 4 days in order to assure proper acclimatization. The compounds were first dissolved in 0.1% aqueous ammonia to a nominal concentration of 2 mg/ml, and then diluted to the desired dosing strength (10 μM) in sterile PBS containing 25 mM phosphate buffer, pH 7.4. Intravenous injections corresponding to 20 nmol/kg were given via a lateral tail vein. Blood samples (200 μl) were collected from the periorbital plexus at time points 0.08, 0.25, 0.5, 1, 2, 4, 8, 24, 32 and 48 h post dosing into K3EDTA tubes and centrifuged for 5 minutes at 4° C. within 20 minutes of sampling. […] Individual plasma concentration-time profiles were analysed by a non-compartmental approach using ToxKin™ version 3.2 (Unilog IT Services), and the resulting pharmacokinetic parameters were determined.

In data set [2] the target is T1, human glucagon-like peptide 1 receptor (GLP-1R) (Homo sapiens, UniProt P43220).
T1 construct: expressed in transfected cells
T1 sequence (P43220 24-463): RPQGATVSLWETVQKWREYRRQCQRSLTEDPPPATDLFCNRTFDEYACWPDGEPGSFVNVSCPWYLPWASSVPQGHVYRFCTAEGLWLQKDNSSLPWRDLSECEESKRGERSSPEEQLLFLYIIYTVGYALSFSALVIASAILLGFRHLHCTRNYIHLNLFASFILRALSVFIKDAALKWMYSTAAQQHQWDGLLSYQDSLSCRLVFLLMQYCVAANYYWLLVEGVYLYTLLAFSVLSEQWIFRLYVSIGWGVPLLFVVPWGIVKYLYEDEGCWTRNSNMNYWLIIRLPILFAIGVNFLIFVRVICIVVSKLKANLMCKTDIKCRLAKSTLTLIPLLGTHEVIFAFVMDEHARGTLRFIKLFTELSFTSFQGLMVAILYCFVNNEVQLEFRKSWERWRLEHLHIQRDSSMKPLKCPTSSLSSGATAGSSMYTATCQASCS
Put plainly: GLP-1 receptor efficacy assay (cAMP AlphaScreen, CHO cells). Format: cell-based. To be noted: for Ratio GLP-1/Glucagon: EC50 [GLP-1R] / EC50 [Glucagon-R], human receptors in CHO-K1; for EC50: cAMP formation, CHO cells expressing human GLP-1-R, 15 min, read-out: EC50 hGLP-1R CHO-K1. The text has this: (§1) The cDNA encoding either the human glucagon receptor (Glucagon-R) (primary accession number P47871) or the human glucagon-like peptide 1 receptor (GLP-1R) (primary accession number P43220) were synthesized and cloned into a mammalian expression vector containing a Zeocin resistance marker.
(§2) The mammalian expression vectors encoding the Glucagon-R or the GLP-1-R were transfected into Chinese hamster ovary (CHO) cells by the Attractene method. Stably expressing clones were obtained by Zeocin selection (250 μg/mL) upon limited dilution of cells resistant to the selection pressure. Glucagon-R and GLP-1-R cell clones expressing were picked, propagated and tested in the Glucagon-R and GLP-1-R efficacy assays as described below. One Glucagon-R expressing clone and one GLP-1-R expressing clone were chosen for compound profiling.
(§3) CHO cells expressing the human Glucagon-R, or human GLP-1-R were seeded 24 hours prior to the assay at 30,000 cells per well in 96-well microtiter plates in culture in 100 μl growth medium. On the day of analysis, growth medium was removed and the cells were washed once with 200 μl of assay buffer (Krebs-Ringer-buffer—KRBH). The buffer was removed and the cells were incubated for 15 min at room temperature in 10 μl KRBH (KRBH+10 mM HEPES, 5 mM NaHCO3, 0.1% (V/V) BSA) with 0.1 mM IBMX in deionized water containing increasing concentrations of test peptides. The reaction was stopped by the addition of lysis buffer (0.1% w/v BSA, 5 mM HEPES, 0.3% v/v Tween-20). After cell lysis for 10 min at room temperature, lysates were transferred to 384-well plates and 10 μl of acceptor/donorbead mixture as contained in the AlphaScreen™ cAMP Functional Assay Kit was added. After one hour of incubation at room temperature in the dark, the cAMP content was determined applying the AlphaScreen™ cAMP Functional Assay Kit from Perkin-Elmer according to manufacturer instructions. EC50 and relative efficacies compared to reference compounds (glucagon and GLP-1) were calculated applying computer aided curve fitting. The GLP-1/glucagon ratio is calculated as defined earlier.
(In general: Alpha assays give light when donor and acceptor beads are brought close together.)

Data set [3] has as its target T2, human glucagon receptor (Glucagon-R) (Homo sapiens, UniProt P47871).
T2 construct: expressed in transfected cells
Put plainly: Glucagon receptor efficacy assay (cAMP AlphaScreen, CHO cells). It is filed as cell-based. As to conditions: cAMP formation, CHO cells expressing human Glucagon-R, 15 min; read-out: EC50 hGCGR CHO-K1.
Source text: as §1, §2, §3

*1 amine or outer side, *2 acyl side, *3 side chain or, on linkers, in order; H or OH if unused. Where a SMILES comes first, the peptide text is derived from it. Side-chain parts run from the residue outwards. [ ]: non-standard residue; d: D form. The star is where a group is joined. C18 diacid = O=C(O)CCCCCCCCCCCCCCCCC(=O)*; γGlu = O=C(O)[C@H](CCC(=O)[*:2])N[*:1]; Ac4c = NC1(C(=O)O)CCC1; AEEA = NCCOCCOCC(=O)O

T2 sequence (P47871 26-477): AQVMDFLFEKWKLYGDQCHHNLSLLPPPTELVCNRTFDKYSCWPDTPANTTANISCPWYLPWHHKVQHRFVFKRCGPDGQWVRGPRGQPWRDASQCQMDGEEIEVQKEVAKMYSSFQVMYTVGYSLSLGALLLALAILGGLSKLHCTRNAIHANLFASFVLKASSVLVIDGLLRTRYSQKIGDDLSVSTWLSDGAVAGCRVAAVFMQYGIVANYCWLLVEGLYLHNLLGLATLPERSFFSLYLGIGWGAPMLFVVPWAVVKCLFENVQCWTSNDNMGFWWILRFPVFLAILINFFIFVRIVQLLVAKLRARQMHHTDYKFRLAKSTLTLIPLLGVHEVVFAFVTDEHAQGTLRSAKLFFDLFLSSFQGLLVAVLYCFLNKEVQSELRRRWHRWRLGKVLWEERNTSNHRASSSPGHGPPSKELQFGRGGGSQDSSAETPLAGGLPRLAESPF

For the compound `CC[C@H](C)[C@H](NC(=O)[C@H](Cc1ccccc1)NC(=O)[C@H](CC(=O)O)NC(=O)[C@H](CCCCN)NC(=O)[C@H](C)NC(=O)[C@H](C)NC(=O)[C@H](CCCNC(=N)N)NC(=O)[C@H](CCC(=O)O)NC(=O)[C@H](CC(=O)O)NC(=O)[C@H](CC(C)C)NC(=O)[C@H](Cc1ccc(O)cc1)NC(=O)[C@H](CCCCN)NC(=O)[C@H](CO)NC(=O)[C@H](Cc1ccc(O)cc1)NC(=O)[C@H](CC(=O)O)NC(=O)[C@H](CO)NC(=O)[C@@H](NC(=O)[C@H](Cc1ccccc1)NC(=O)[C@@H](NC(=O)CNC(=O)[C@H](CCC(N)=O)NC(=O)C(C)(C)NC(=O)[C@@H](N)Cc1c[nH]cn1)[C@@H](C)O)[C@@H](C)O)C(=O)N[C@@H](CCCCNC(=O)CNC(=O)CNC(=O)[C@H](CO)NC(=O)CNC(=O)[C@H](CO)NC(=O)CNC(=O)CC[C@H](NC(=O)CCCCCCCCCCCCCCCCC(=O)O)C(=O)O)C(=O)N[C@@H](Cc1c[nH]c2ccccc12)C(=O)N[C@@H](CC(C)C)C(=O)N[C@@H](CCC(=O)O)C(=O)N[C@@H](CO)C(=O)N[C@@H](C)C(N)=O` [Compound 3], in data set [1], the MRT (as a rule, the average time that molecules of a dose stay in the body) came to 28.7 h; the clearance – broadly, the rate of elimination divided by the concentration – was found to be 3.36 mL/h/kg; the half-life (usually the time in which the quantity being followed falls by half) was 23.4 h. In data set [2], the “Ratio GLP-1/Glucagon” value is on record as 0.47 and the EC50 – broadly, the concentration giving half of the maximal effect – is 0.7 nM.

In data set [1], `CC[C@H](C)[C@H](NC(=O)[C@H](Cc1ccccc1)NC(=O)[C@H](CC(=O)O)NC(=O)[C@H](CCCCN)NC(=O)[C@H](C)NC(=O)[C@H](CCCNC(=N)N)NC(=O)[C@H](CCCCNC(=O)COCCOCCNC(=O)COCCOCCNC(=O)CC[C@H](NC(=O)CCCCCCCCCCCCCCCCC(=O)O)C(=O)O)NC(=O)[C@H](CCC(=O)O)NC(=O)[C@H](CC(=O)O)NC(=O)[C@H](CC(C)C)NC(=O)[C@H](Cc1ccc(O)cc1)NC(=O)[C@H](CCCCN)NC(=O)[C@H](CO)NC(=O)[C@H](Cc1ccc(O)cc1)NC(=O)[C@H](CC(=O)O)NC(=O)[C@H](CO)NC(=O)[C@@H](NC(=O)[C@H](Cc1ccccc1)NC(=O)[C@@H](NC(=O)CNC(=O)[C@H](CCC(N)=O)NC(=O)C1(NC(=O)[C@@H](N)Cc2c[nH]cn2)CCC1)[C@@H](C)O)[C@@H](C)O)C(=O)N[C@@H](CCC(=O)O)C(=O)N[C@@H](Cc1c[nH]c2ccccc12)C(=O)N[C@@H](CC(C)C)C(=O)N[C@@H](CCC(=O)O)C(=O)N[C@@H](CO)C(=O)N[C@@H](C)C(N)=O` [Compound 4, H-H-Ac4c-QGTFTSDYSKYLDE-K([17-carboxy-heptadecanoyl]-isoGlu-Peg3-Peg3)-RAKDFIEWLESA-NH2] (H-H[Ac4c]QGTFTSDYSKYLDEK([AEEA-AEEA-γGlu-C18 diacid])RAKDFIEWLESA-NH2) showed a mean residence time MRT of 17.6 h, a clearance of 6.6 mL/h/kg and a half-life of 13.7 h. For the same compound, in data set [2], the “Ratio GLP-1/Glucagon” value is listed as 1.56 and the EC50 is 0.7 nM.

With `CC[C@H](C)[C@H](NC(=O)[C@H](Cc1ccccc1)NC(=O)[C@H](CC(=O)O)NC(=O)[C@H](CCCCN)NC(=O)[C@H](C)NC(=O)[C@H](C)NC(=O)[C@H](CCCNC(=N)N)NC(=O)[C@H](CCCCNC(=O)CNC(=O)CNC(=O)[C@H](CO)NC(=O)CNC(=O)[C@H](CO)NC(=O)CNC(=O)CC[C@H](NC(=O)CCCCCCCCCCCCCCCCC(=O)O)C(=O)O)NC(=O)[C@H](CC(=O)O)NC(=O)[C@H](CC(C)C)NC(=O)[C@H](Cc1ccc(O)cc1)NC(=O)[C@H](CCCCN)NC(=O)[C@H](CO)NC(=O)[C@H](Cc1ccc(O)cc1)NC(=O)[C@H](CC(=O)O)NC(=O)[C@H](CO)NC(=O)[C@@H](NC(=O)[C@H](Cc1ccccc1)NC(=O)[C@@H](NC(=O)CNC(=O)[C@H](CCC(N)=O)NC(=O)C(C)(C)NC(=O)[C@@H](N)Cc1c[nH]cn1)[C@@H](C)O)[C@@H](C)O)C(=O)N[C@@H](CCC(=O)O)C(=O)N[C@@H](Cc1c[nH]c2ccccc12)C(=O)N[C@@H](CC(C)C)C(=O)N[C@@H](CCC(=O)O)C(=O)N[C@@H](CO)C(=O)N[C@@H](C)C(N)=O` [Compound 5, H-H-Aib-QGTFTSDYSKYLD-K([17-carboxy-heptadecanoyl]-isoGlu-GSGSGG)-RAAKDFIEWLESA-NH2], in data set [3], the 50% effective concentration (EC50) turned out to be 0.18 nM. In addition, the “Ratio GLP-1/Glucagon” value in data set [2] was determined as 4.61.

For `CC[C@H](C)[C@H](NC(=O)[C@H](Cc1ccccc1)NC(=O)[C@H](CC(=O)O)NC(=O)[C@H](CCCCN)NC(=O)[C@H](C)NC(=O)[C@H](CCCNC(=N)N)NC(=O)[C@H](CCCCNC(=O)CC[C@H](NC(=O)CCCCCCCCCCCCCCCCC(=O)O)C(=O)O)NC(=O)[C@H](CCC(=O)O)NC(=O)[C@H](CC(=O)O)NC(=O)[C@H](CC(C)C)NC(=O)[C@H](Cc1ccc(O)cc1)NC(=O)[C@H](CCCCN)NC(=O)[C@H](CO)NC(=O)[C@H](Cc1ccc(O)cc1)NC(=O)[C@H](CC(=O)O)NC(=O)[C@H](CO)NC(=O)[C@@H](NC(=O)[C@H](Cc1ccccc1)NC(=O)[C@@H](NC(=O)CNC(=O)[C@H](CCC(N)=O)NC(=O)C1(NC(=O)[C@@H](N)Cc2c[nH]cn2)CCC1)[C@@H](C)O)[C@@H](C)O)C(=O)N[C@@H](CCC(=O)O)C(=O)N[C@@H](Cc1c[nH]c2ccccc12)C(=O)N[C@@H](CC(C)C)C(=O)N[C@@H](CCC(=O)O)C(=O)N[C@@H](CO)C(=O)N[C@@H](C)C(N)=O` [Compound 12, H-H-Ac4c-QGTFTSDYSKYLDE-K([17-carboxy-heptadecanoyl]-isoGlu)-RAKDFIEWLESA-NH2] (H-H[Ac4c]QGTFTSDYSKYLDEK([γGlu-C18 diacid])RAKDFIEWLESA-NH2), the EC50 in data set [3] came out at 0.07 nM. Moreover, the “Ratio GLP-1/Glucagon” value in data set [2] is given as 6.86.

The record behind these values is patent publication US12473339B2, “Acylated glucagon analogues” (Zealand Pharma A/S, priority 2013, dated 2025).
